Measured values as given in EP1101496A1, “THERAPEUTIC AGENTS FOR ALLERGIC DISEASES” (FUJI YAKUHIN KOGYO KABUSHIKI KAISHA, priority 1998, dated 2000).

What was measured:
Allergic Rhinitis = experiment: Allergic rhinitis model (nasal airway resistance); type: in vivo, Guinea pigs; details: 15 mg/kg s.c. one hour prior to rhinitis-induction; 20 minutes after antigen-challenge
Method: Guinea pigs (male, Std:Hartley, 3 weeks old) were housed and fed in a aluminum cage at a rate of up to 5 animals per cage. After acclimatization for 1 week, the guinea pigs were administered intravenously with an anti-ovalbumin antibody (Nihon Bioresearch Inc., Hajima Institute; antibody titer by a 3-hour homologous passive cutaneous anaphylaxis reaction, 1 : 8192) prepared according to the Orange & Moore method (Orange, R. P. and Moore, E. G., The Journal of Immunology 116: p.392-397, 1976) into their auricle vein at a dose of 0.3 mL/animal for passive sensitization. Twenty four to twenty six hours after sensitization under conditions of fast and free access to drinking water, the sensitized guinea pigs were anesthetized with urethane (1.2 g/kg, intraperitoneal administration), fixed in a supine position, and mediad excised cervically to expose tracheas. […] Variations of the ventilatory overflow were quantitatively recorded on a recticoder (RECTI-HORIZ-8K, Nippon Denki Sanei K.K.) for 20 minutes after antigen-challenge.
Wave height (cm) was measured on recorded papers and a nasal airway resistance value was calculated according to the following formula: Percent Increase (%) in Nasal Airway Resistance =((Observed Value)-(Value prior to Administration))/((Complete Obstruction)-(Value prior to Administration))× 100 [formula] […]

[1] = test system: infiltration of leukocytes into an air pouch; experiment: Allergic inflammation model (air pouch model); type: in vivo, rats; details: 10 mg/kg or 30 mg/kg into the air pouch or intraperitoneally; 8 hours after the second challenge; dexamethasone 0.1 mg/kg as comparison
Method: Compound No. 8 was dissolved in physiological saline to make the final concentration 2.5 mg/mL (equal to 10 mg/kg) or 7.5 mg/mL (equal to 30 mg/kg) and administered into an air pouch of animals or intraperitoneally at a dose of 4 mL/kg. Dexamethasone was also dissolved in physiological saline to make the final concentration 25 µg/mL (equal to 0.1 mg/kg) and administered into an air pouch of animals at a dose of 4 mL/kg. Administration into such an air pouch was conducted simultaneously with the second challenge while the intraperitoneal administration was 30 minutes prior to the second challenge. Acetylated bovine serum albumin diazo-coupled with arsanilic acid (ABA-AcBSA) was prepared according to the Ouchi et al. and Tabachnick et al. methods as disclosed in Ouchi et al., "Seibutsu Yakukagaku Jikken Koza, Ensho To Allergy (Inflammation and Allergy) I-2", pp.194 to 206, Hirokawa Publishing Co., Japan and Tabachnick et al., The Journal of Biological Chemistry, 234: 1726- 1730, 1959, and mixed with a Freund's complete adjuvant (Difco) at an equal ratio. The mixture was treated using a connection-type glass syringe to form an emulsion which was used as a sensitizing solution. […] The retrieved exudates were measured by a dye-exclusion method using a haematocytometer and the number of exudated leukocytes were counted.

CNC(=O)[C@H](Cc1ccc(NC(=N)N)cc1)NC(=O)[C@H](CC(C)C)C(CCCc1ccccc1)C(=O)NO (single isomer, unassigned) [Compound No. 8, N-[4-(N-hydroxyamino)-2(R)-isobutyl-3(R or S)-(3-phenyltrimethylene)succinyl]-L-4'-guanidophenylalanine-N-methylamide 1 acetate]
increase in nasal airway resistance due to antigen challenge (FIG. 14) (Allergic Rhinitis): markedly ameliorates an increase in nasal airway resistance
infiltration of leukocytes into an air pouch (FIG. 13) [1]: significantly inhibited
